# Reference: paper PMC8226449, “In Vitro Evaluation of the Squaramide-Conjugated Fibroblast Activation Protein Inhibitor-Based Agents AAZTA^5.SA.FAPi and DOTA.SA.FAPi” (Molecules, 2021)
# Legend:
# [1] = parameters: method as in PMID 32332144; conditions: reported in the literature; cited from earlier work
# [2] = Stability of radiolabelled complexes in human serum; format: in vitro ADME; conditions: human serum (HS), 37 °C
# Procedure: (§1) Labeling was carried out with 100–150 MBq gallium-68 in 300 µL of 1 M ammonium acetate (AmAc) buffer pH 5.5 and with 30–40 MBq scandium-44 in 1 mL of 0.25 M AmAc pH 4.0, and aliquots were taken at 1, 3, 5, 10, and 15 min. For lutetium-177, activity of 30–40 MBq in 300 µL of 1 M AmAc pH 5.5 was used, and aliquots were taken at 1, 3, 5, 15, 30, and 60 min. Stability was tested in 500 µL of human serum, phosphate-buffered saline, ethanol, and saline (0.9% isotonic NaCl solution) using ~5 MBq of tracer solution with >95% radiochemical purity. […] HS (human male AB plasma, USA origin) and PBS were purchased from Sigma Aldrich, and 0.9% saline from B. Braun Melsungen AG (Melsungen, Germany).
# [3] = Stability of radiolabelled complexes in PBS, saline (NaCl) and ethanol; format: physicochemical; conditions: PBS and NaCl, 37 °C
# Procedure: as §1
# [4] = Lipophilicity (logD) by shake-flask method; format: physicochemical; conditions: pH = 7.4, 1-octanol/PBS
# Procedure: Lipophilicity (logD value) was determined via the “shake-flask” method. For both precursors AAZTA^5.SA.FAPi and DOTA.SA.FAPi logD (pH = 7.4), values were measured for the ^68Ga- and ^44Sc complexes.
# Lipophilicity of [^68Ga]Ga-AAZTA^5.SA.FAPi, [^44Sc]Sc-AAZTA^5.SA.FAPi and [^68Ga]Ga-DOTA.SA.FAPi was determined using the “shake-flask” methodology. After reaction of the precursor with the respective radionuclide, the reaction solution was adjusted to pH 7.4 with NaOH. Aliquots of ~5 MBq for the ^68Ga complexes and of ~3 MBq for the ^44Sc-complexed were taken and adjusted to a total volume of 700 μL with PBS (n= 4). 700 μL 1-octanol was added, and the solution was shaken for 2 min (1500 rpm). Afterwards, each tube was centrifuged for 2 min. 400 μL of the octanol- and PBS phases were pipetted in new tubes, and aliquots of each phase (3 µL of the PBS phase and 6 μL of the octanol phase) were measured via radio-TLC. The PBS phases were adjusted to 700 µL, and 700 μL octanol was added to each tube. The procedure was repeated twice. LogD values were calculated as the logarithm of the octanol/PBS ratio.
structure (smiles),measurement,setting,value
"N#C[C@@H]1CC(F)(F)CN1C(=O)CNC(=O)c1ccnc2ccc(OCCCN3CCN(C(=O)CN4CCN(CC(=O)O)CCN(CC(=O)O)CCN(CC(=O)O)CC4)CC3)cc12 (68Ga complex, metal not drawn) [FAPI-04]",logD,[1],−2.4 ± 0.28
N#C[C@@H]1CC(F)(F)CN1C(=O)CNC(=O)c1ccnc2ccc(OCCCCNc3c(NCCNC(=O)CCCCC4(N(CC(=O)[O-])CC(=O)[O-])CN(CC(=O)[O-])CCN(CC(=O)[O-])C4)c(=O)c3=O)cc12.[44Sc+3] [[^44Sc]Sc-AAZTA^5.SA.FAPi],intact conjugate (stability),[2]; 1 h,> 99%
same,intact conjugate (stability),[2]; 8 h,> 97%
same,intact conjugate (stability),[3]; 1 h,> 99%
same,intact conjugate (stability),[3]; 8 h,> 99%
same,LogD7.4,[4],−2.50 ± 0.11
